In article PMC5970182, “Enabling STD-NMR fragment screening using stabilized native GPCR: A case study of adenosine receptor” (Scientific Reports, 2018):

Columns and labels:
[1] = test system: A2AR StaR; set-up: method as in PMID 18664584, PMID 20624408; details: cited from earlier work
[2] = test system: Non-transfected HEK293 cells; assay: cAMP assay in non-transfected HEK293 cells (negative control); type: cell-based, human; details: high concentrations of CGS-21680; probably endogenous A2AR
[3] = biological target: T1, A2AR (Homo sapiens, UniProt P29274); assay: STD-NMR binding and competition on purified native A2AR
T1 construct: Full length and wild type A2AR was expressed in yeast (Pichia pastoris) and Sf9; Strep-tag II (N); 8xHis (N); made in house; host or cells: Sf9 insect cells (baculovirus)

[4] = biological target: the molecule itself; assay: SEC-MALS; peak 1 of the gel filtration of affinity-purified A2AR; Phenomenex Yarra SEC 3000-3 column, 20 °C, 0.3 ml/min; DDM/CHS micelles; dn/dc protein 0.185 ml/g, detergent 0.1618 ml/g

In the case of `CCNC(=O)[C@H]1O[C@@H](n2cnc3c(N)nc(NCCc4ccc(CCC(=O)O)cc4)nc32)[C@H](O)[C@@H]1O` [CGS-21680], the “Binding of agonists to StaR preparation in comparison to the wild type protein” value [1] is given as “not able to bind correctly” and the cAMP production [2] is given as “small increase in cAMP production”.

In the case of `CCNC(=O)[C@H]1O[C@@H](n2cnc3c(N)ncnc32)[C@H](O)[C@@H]1O` [NECA], the “Binding of agonists to StaR preparation in comparison to the wild type protein” value [1] is listed as “not able to bind correctly”.

With `Cn1c(=O)c2c(ncn2C)n(C)c1=O` [caffeine, reference compound] the STD binding signal [3] was “bound to A2AR” and the “STD binding signal in competition with ZM241385” value [3] was “binding signal of caffeine disappears”.

B1: Wild type, full length human adenosine A2A receptor (receptor, UniProt P29274 1-412, looked up)
chain: MPIMGSSVYITVELAIAVLAILGNVLVCWAVWLNSNLQNVTNYFVVSLAAADIAVGVLAIPFAITISTGFCAACHGCLFIACFVLVLTQSSIFSLLAIAIDRYIAIRIPLRYNGLVTGTRAKGIIAICWVLSFAIGLTPMLGWNNCGQPKEGKNHSQGCGEGQVACLFEDVVPMNYMVYFNFFACVLVPLLLMLGVYLRIFLAARRQLKQMESQPLPGERARSTLQKEVHAAKSLAIIVGLFALCWLPLHIINCFTFFCPDCSHAPLWLMYLAIVLSHTNSVVNPFIYAYRIREFRQTFRKIIRSHVLRQQEPFKAAGTSARVLAAHGSDGEQVSLRLNGHPPGVWANGSAPHPERRPNGYALGLVSGGSAQESQGNTGLPDVELLSHELKGVCPEPPGLDDPLAQDGAGVS
modifications: N-glycans attached (sites not given)
notes: adenosine A2A receptor, human, full length, wild type; Peak 2 of the gel filtration also holds a faster band consistent with a degradation product; also called native A2AR
With B1 the “stoichiometry N” value [4] was roughly 5.
